Data set [1] deals with SARS-CoV-2 in Calu-3 cells. In words: microbe, parasite or virus in culture. The conditions noted are these: Severe acute respiratory syndrome coronavirus 2, Calu-3, read-out: Calu-3 cells Average IC50.
Data set [2] is described as follows: Plasma protein binding, hamster. The conditions noted are these: hamster, plasma.
A short description of data set [3]: Binding to antiviral assay medium by Rapid Equilibrium Dialysis. The conditions noted are these: bovine. (In equilibrium dialysis free small molecules cross a membrane that holds back macromolecules.)
The test system of data set [4] is SARS-CoV-2 in Calu-3 cells.
In data set [5] the test system is SARS-CoV-2 in Vero cells.
Data set [6] deals with SARS-CoV-2 in Vero cells. Put plainly: microbe, parasite or virus in culture. As to conditions: Severe acute respiratory syndrome coronavirus 2, Vero.
In data set [7] the test system is SARS-CoV-2. The format is in vivo, Syrian hamster. The conditions noted are these: for Activity in SARS-CoV-2 Hamster Model: doses, frequency, duration as in Table 1.
The conditions of data set [8]: cited from earlier work.
A short description of data set [9]: Population PK model from satellite PK studies in hamster. The conditions noted are these: hamster of the study's median weight (80-131 g).
The test system of data set [10] is SARS-CoV-2. As to conditions: read-out: SARS-CoV-2 EC50, cited from earlier work.
Data set [11] is described as follows: in vitro. The conditions noted are these: African green monkey, Selectivity Index (Vero cells), T: toxicity observed.
Data set [12] is described as follows: in vitro. The conditions noted are these: hamster, plasma.
The conditions of data set [13]: female, LGV Golden Syrian, hamster, in vivo.
The subject of data set [14] is SARS-CoV-2 in A549-Dual hACE2-TMPRSS2 cells. Set-up: method as in Abdelnabi et al., 2022 [60]. The conditions noted are these: ref Abdelnabi et al., 2022 [60]; cited from earlier work.
Setting [15] is: read-out: VERO cells Average IC50, With Pgp pump inhibitor, 2 μM CP-100356, * one replicate only.
Setting [16] is: read-out: VERO cells Average IC50, Without Pgp pump inhibitor, * one replicate only.

Read-outs that look alike come from different tables or passages of the source.

For the compound `COC(=O)N[C@H](C(=O)N1CCC[C@H]1c1nc(-c2ccc(-c3ccc(-c4c[nH]c([C@@H]5CCCN5C(=O)[C@@H](NC(=O)OC)C(C)C)n4)cc3)cc2)c[nH]1)C(C)C` [Daclatasvir, daclatasvir], the values for the IC50 (in data set [1]; in the data set on SARS-CoV-2 in Vero cells [6] (setting [15]); in the data set with SARS-CoV-2 in Vero cells [6] (setting [16])) were 24.4 µM, 7.6 µM and 19.8 µM, respectively. The free fraction (fraction unbound) (usually free concentration divided by total concentration) in data set [2] came out at 0.055; in data set [3], 0.209. Moreover, the “Activity In Vitro; Potency EC50 or IC50 < 10 µM; Calu-3 Cells” value (“Activity In Vitro … Calu-3 Cells” below) in data set [4] is listed as “No (Potency EC50 or IC50 < 10 µM)”. The “Activity In Vitro; Potency EC50 or IC50 < 10 µM; Vero Cells” value (from here on “Activity In Vitro … Vero Cells”) with SARS-CoV-2 in Vero cells [5] (in the presence of a P-glycoprotein inhibitor (^Pgp)) is listed as “Yes (Potency EC50 or IC50 < 10 µM)”. Also, the “Activity in SARS-CoV-2 Hamster Model” value in the data set on SARS-CoV-2 [7] is “No”; in the data set with SARS-CoV-2 [7] (listed as daclatasvir), “no activity”. For the same compound, the “Fraction unbound in plasma, human” value in data set [8] (literature, ref 61 (N-desethylamodiaquine), 62 (atazanavir), 63 (daclatasvir), 64 (favipiravir), 65 (ivermectin), 66 (tizoxanide), 67 (sofosbuvir)) was 1%. The “CL/F, elimination clearance, population estimate (%RSE)” value in data set [9] was 239 (19.6) mL/h. Besides, the “KA, absorption rate constant, population estimate (%RSE)” value in data set [9] is 0.415 (5.84) h-1. Also, the “Q/F (Q1/F), inter-compartment clearance, population estimate (%RSE)” value in data set [9] is reported as 33.4 (25.5) mL/h. Also, in data set [9], the “VC/F, central volume of distribution, population estimate (%RSE)” value is 86.3 (27.0) mL. In data set [9], the “VP/F, peripheral volume of distribution, population estimate (%RSE)” value is 438 (25.6) mL. The half-maximal effective concentration (EC50) (as a rule, the concentration at which the effect is half-maximal) was 1.1 µM in the data set with SARS-CoV-2 [10] (host cell Calu-3); 0.6 µM in the data set with SARS-CoV-2 [10] (host cell HuH-7); 0.8 µM in the data set on SARS-CoV-2 [10] (host cell Vero, ref 26). Further, the results for the selectivity ratio in the data set “in vitro [11]” (With Pgp pump inhibitor) and in “in vitro [11]” (Without Pgp pump inhibitor) were greater than 6.6 and greater than 2.5, respectively.
Turning to `NC(=O)c1nc(F)c[nH]c1=O` [Favipiravir, favipiravir], the concentration for half-maximal inhibition (IC50) (in data set [1]; with SARS-CoV-2 in Vero cells [6] (setting [15]); in the data set with SARS-CoV-2 in Vero cells [6] (setting [16])) was greater than 50 µM each time. In addition, the values for the free fraction (fraction unbound) (in data set [3]; in “in vitro [12]”) were 0.993 and 0.821, respectively. For the same compound, the “Activity In Vitro … Calu-3 Cells” value in data set [4] was “No (Potency EC50 or IC50 < 10 µM)”. Besides, in the data set with SARS-CoV-2 in Vero cells [5], the “Activity In Vitro … Vero Cells” value is “No (Potency EC50 or IC50 < 10 µM)”. Moreover, the “Activity in SARS-CoV-2 Hamster Model” value was “Yes” with SARS-CoV-2 [7] and “demonstrated in vivo efficacy” with SARS-CoV-2 [7] (listed as favipiravir). Also, in data set [8] (human, plasma), the “Fraction unbound in plasma, human” value is listed as 46%. In addition, the EC50 was 446 µM with SARS-CoV-2 [10] (host cell Vero E6, ref 17); greater than 100 µM with SARS-CoV-2 [10] (host cell Vero E6, ref 31); greater than 50 µM in the data set with SARS-CoV-2 [10] (host cell Vero E6, ref 32); 117 µM in the data set with SARS-CoV-2 [10] (host cell Vero E6, ref 34); 62 µM with SARS-CoV-2 [10] (host cell Vero E6, ref 35); greater than 500 µM in the data set on SARS-CoV-2 [10] (host cell Vero, ref 25). The EC50 is greater than 20 µM with SARS-CoV-2 [10] (host cell Vero, ref 36) and greater than 64 µM in the data set on SARS-CoV-2 [10] (host cell VeroE6/TMPRSS2). The “CL/F, elimination clearance, population estimate (%RSE)” value in data set [13] was 58.2 (6.06) mL/h. The “KA, absorption rate constant, population estimate (%RSE)” value in data set [13] was 0.774 (7.71) h-1. Also, the “Q/F (Q1/F), inter-compartment clearance, population estimate (%RSE)” value in [13] is given as 1.80 (12.7) mL/h. In addition, the “VC/F, central volume of distribution, population estimate (%RSE)” value in data set [13] is recorded as 11.7 (14.7) mL. In addition, the “VP/F, peripheral volume of distribution, population estimate (%RSE)” value in data set [13] is on record as 11.6 (8.7) mL.
Consider `CC(C)(C)[C@H](NC(=O)C(F)(F)F)C(=O)N1C[C@H]2[C@@H]([C@H]1C(=O)N[C@H](C#N)C[C@@H]1CCNC1=O)C2(C)C` [Nirmatrelvir, nirmatrelvir], for which the half-maximal inhibitory concentration (IC50) – broadly, the point on the concentration scale where inhibition reaches its midpoint – in data set [1] was 0.3 µM; with SARS-CoV-2 in Vero cells [6] (setting [15]), less than 0.05 µM; with SARS-CoV-2 in Vero cells [6] (setting [16]), 3.4 µM. For the same compound, the figures for the free fraction (fraction unbound) in [2] and in [3] were 0.621 and 0.898, respectively. Moreover, in [4], the “Activity In Vitro … Calu-3 Cells” value is on record as “Yes (Potency EC50 or IC50 < 10 µM)”. The “Activity In Vitro … Vero Cells” value in the data set with SARS-CoV-2 in Vero cells [5] is reported as “Yes (Potency EC50 or IC50 < 10 µM)”. Moreover, the “Activity in SARS-CoV-2 Hamster Model” value with SARS-CoV-2 [7] is recorded as “Yes”; with SARS-CoV-2 [7] (listed as nirmatrelvir) it was “demonstrated in vivo efficacy”. Besides, the “Lung TCID50 of SARS-CoV-2 in the hamster model” value with SARS-CoV-2 [7] (hamster, in vivo) is “significant reduction”. In addition, in data set [14], the EC50 is 0.11 µM.

These data come from paper PMC9460261, “Need for a Standardized Translational Drug Development Platform: Lessons Learned from the Repurposing of Drugs for COVID-19” (Microorganisms, 2022).
